Among the data in patent publication US20250304811A1, “Ink Jet Ink Composition And Recording Method” (SEIKO EPSON CORPORATION, priority 2024, published 2025) are miscibility with water values, retold here.

The data set can be described thus: Solubility in water. The following applies: 20° C., 100 g of water.

On to `COCCOC` [ethylene glycol dimethyl ether], for which the miscibility with water result was “completely miscible with water”.
